Structures can show the parent of a compound that is named as a salt.
Target: T1, human V1a receptor (Homo sapiens, UniProt P37288)
T1 construct: expressed in transfected cells; host or cells: HEK293 cells, transiently transfected; membranes prepared
Experiment: human V1a receptor binding (3H-Vasopressin SPA, HEK293 membranes)
Conditions: membranes of HEK293 cells transiently transfected with human V1a receptor, Ki by Cheng-Prussoff, read-out: pKi (hV1a) (converted)
Description: The human V1a receptor was cloned by RT-PCR from total human liver RNA. The coding sequence was subcloned in an expression vector after sequencing to confirm the identity of the amplified sequence. […] Cell membranes were prepared from HEK293 cells transiently transfected with the expression vector and grown in 20 liter fermenters with the following protocol.
50 g of cells are resuspended in 30 ml freshly prepared ice cold Lysis buffer (50 mM HEPES, 1 mM EDTA, 10 mM magnesium dichloride adjusted to pH=7.4+complete cocktail of protease inhibitor (Roche Diagnostics)). Homogenized with Polytron for 1 min and sonicated on ice for 2×2 minutes at 80% intensity (Vibracell sonicator). The preparation is centrifuged 20 min at 500 g at 4° C., the pellet is discarded and the supernatant centrifuged 1 hour at 43,000 g at 4° C. (19,000 rpm). The pellet is resuspended in 12.5 ml Lysis buffer+12.5 ml sucrose 20% and homogenized using a Polytron for 1-2 min. The protein concentration is determined by the Bradford method and aliquots are stored at −80° C. until use. For binding studies 60 mg Yttrium silicate SPA beads (Amersham®) are mixed with an aliquot of membrane in binding buffer (50 mM Tris, 120 mM sodium chloride, 5 mM potassium chloride, 2 mM calcium dichloride, 10 mM magnesium dichloride) for 15 minutes with mixing. 50 μl of bead/membrane mixture is then added to each well of a 96 well plate, followed by 50 μl of 4 nM 3H-Vasopressin (American Radiolabeled Chemicals). For total binding measurement 100 μl of binding buffer are added to the respective wells, for non-specific binding 100 μl of 8.4 mM cold vasopressin and for compound testing 100 μl of a serial dilution of each compound in 2% dimethyl sulfoxide. The plate is incubated 1 h at room temperature, centrifuged 1 min at 1000 g and counted on a Packard Top-Count. Non-specific binding counts are subtracted from each well and data is normalized to the maximum specific binding set at 100%. To calculate an IC50 the curve is fitted using a non-linear regression model (XLfit) and the Ki is calculated using the Cheng-Prussoff equation.

T1 sequence (P37288 whole entry): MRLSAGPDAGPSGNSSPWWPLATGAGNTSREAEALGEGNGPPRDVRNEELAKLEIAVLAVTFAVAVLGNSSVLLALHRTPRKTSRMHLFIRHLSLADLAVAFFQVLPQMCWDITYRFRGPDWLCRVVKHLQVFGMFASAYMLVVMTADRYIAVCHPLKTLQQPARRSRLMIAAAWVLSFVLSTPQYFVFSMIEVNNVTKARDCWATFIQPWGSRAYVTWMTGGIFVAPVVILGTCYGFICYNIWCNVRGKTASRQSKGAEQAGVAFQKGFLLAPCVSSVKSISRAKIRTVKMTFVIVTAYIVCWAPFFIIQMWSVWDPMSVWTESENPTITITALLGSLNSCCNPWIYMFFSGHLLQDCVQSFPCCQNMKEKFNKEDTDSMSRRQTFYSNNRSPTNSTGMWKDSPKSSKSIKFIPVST

SMILES	Ki
COCCN1Cc2cc(Cl)ccc2-n2c(nnc2[C@H]2CC[C@H](c3cc(C)on3)CC2)C1 [Example 29, trans-8-Chloro-5-(2-methoxy-ethyl)-1-[4-(5-methyl-isoxazol-3-yl)-cyclohexyl]-5,6-dihydro-4H-2,3,5,10b-tetraaza-benzo[e]azulene]	1.58 nM
CNCCN1Cc2cc(Cl)ccc2-n2c(nnc2[C@H]2CC[C@H](c3cc(C)on3)CC2)C1 [Example 30, trans-(2-{8-Chloro-1-[4-(5-methyl-isoxazol-3-yl)-cyclohexyl]-4H,6H-2,3,5,10b-tetraaza-benzo[e]azulen-5-yl}-ethyl)-methyl-amine]	25.1 nM
CC(=O)N1Cc2cc(Cl)ccc2-n2c(nnc2[C@H]2CC[C@H](c3cc(C)on3)CC2)C1 [Example 31, trans-1-{8-Chloro-1-[4-(5-methyl-isoxazol-3-yl)-cyclohexyl]-4H,6H-2,3,5,10b-tetraaza-benzo[e]azulen-5-yl}-ethanone]	1.74 nM
Cc1cc([C@H]2CC[C@H](c3nnc4n3-c3ccc(Cl)cc3CN(C(=O)CO)C4)CC2)no1 [Example 32, trans-1-{8-Chloro-1-[4-(5-methyl-isoxazol-3-yl)-cyclohexyl]-4H,6H-2,3,5,10b-tetraaza-benzo[e]azulen-5-yl}-2-hydroxy-ethanone]	2.88 nM
Cc1cc([C@H]2CC[C@H](c3nnc4n3-c3ccc(Cl)cc3CN(C(=O)CN(C)C)C4)CC2)no1 [Example 33, trans-1-{8-Chloro-1-[4-(5-methyl-isoxazol-3-yl)-cyclohexyl]-4H,6H-2,3,5,10b-tetraaza-benzo[e]azulen-5-yl}-2-dimethylamino-ethanone hydroformate]	2 nM
Cc1cc([C@H]2CC[C@H](c3nnc4n3-c3ccc(Cl)cc3CN(S(C)(=O)=O)C4)CC2)no1 [Example 34, trans-8-Chloro-5-methanesulfonyl-1-[4-(5-methyl-isoxazol-3-yl)-cyclohexyl]-5,6-dihydro-4H-2,3,5,10b-tetraaza-benzo[e]azulene]	0.275 nM
Cc1cc([C@H]2CC[C@H](c3nnc4n3-c3ccc(Cl)cc3CN(S(=O)(=O)N(C)C)C4)CC2)no1 [Example 35, trans-8-Chloro-1-[4-(5-methyl-isoxazol-3-yl)-cyclohexyl]-4H,6H-2,3,5,10b-tetraaza-benzo[e]azulene-5-sulfonic acid dimethylamide]	0.501 nM
Cc1cc([C@H]2CC[C@H](c3nnc4n3-c3ccc(F)cc3CN(C(=O)OC(C)(C)C)C4)CC2)no1 [Example 36, trans-8-Fluoro-1-[4-(5-methyl-isoxazol-3-yl)-cyclohexyl]-4H,6H-2,3,5,10b-tetraaza-benzo[e]azulene-5-carboxylic acid tert-butyl ester]	0.776 nM
Cc1cc([C@H]2CC[C@H](c3nnc4n3-c3ccc(F)cc3CNC4)CC2)no1 [Example 37, trans-8-Fluoro-1-[4-(5-methyl-isoxazol-3-yl)-cyclohexyl]-5,6-dihydro-4H-2,3,5,10b-tetraaza-benzo[e]azulene]	91.2 nM
Cc1cc([C@H]2CC[C@H](c3nnc4n3-c3ccc(F)cc3CN(C)C4)CC2)no1 [Example 38, trans-8-Fluoro-1-[4-(5-methyl-isoxazol-3-yl)-cyclohexyl]-5-methyl-5,6-dihydro-4H-2,3,5,10b-tetraaza-benzo[e]azulene]	18.6 nM
Cc1onc([C@H]2CC[C@H](c3nnc4n3-c3ccc(Cl)cc3CN(C(=O)OC(C)(C)C)C4)CC2)c1C [Example 39, trans-8-Chloro-1-[4-(4,5-dimethyl-isoxazol-3-yl)-cyclohexyl]-4H,6H-2,3,5,10b-tetraaza-benzo[e]azulene-5-carboxylic acid tert-butyl ester]	0.2 nM
Cc1onc([C@H]2CC[C@H](c3nnc4n3-c3ccc(Cl)cc3CNC4)CC2)c1C [Example 40, trans-8-Chloro-1-[4-(4,5-dimethyl-isoxazol-3-yl)-cyclohexyl]-5,6-dihydro-4H-2,3,5,10b-tetraaza-benzo[e]azulene]	4.79 nM
Cc1onc([C@H]2CC[C@H](c3nnc4n3-c3ccc(Cl)cc3CN(C)C4)CC2)c1C [Example 41, trans-8-Chloro-1-[4-(4,5-dimethyl-isoxazol-3-yl)-cyclohexyl]-5-methyl-5,6-dihydro-4H-2,3,5,10b-tetraaza-benzo[e]azulene]	0.501 nM
Cc1onc([C@H]2CC[C@H](c3nnc4n3-c3ccc(Cl)cc3CN(C(=O)OC(C)(C)C)C4)CC2)c1Cl [Example 42, trans-8-Chloro-1-[4-(4-chloro-5-methyl-isoxazol-3-yl)-cyclohexyl]-4H,6H-2,3,5,10b-tetraaza-benzo[e]azulene-5-carboxylic acid tert-butyl ester]	0.398 nM
Cc1onc([C@H]2CC[C@H](c3nnc4n3-c3ccc(Cl)cc3CNC4)CC2)c1Cl [Example 43, trans-8-Chloro-1-[4-(4-chloro-5-methyl-isoxazol-3-yl)-cyclohexyl]-5,6-dihydro-4H-2,3,5,10b-tetraaza-benzo[e]azulene]	5.89 nM
Cc1onc([C@H]2CC[C@H](c3nnc4n3-c3ccc(Cl)cc3CN(C)C4)CC2)c1Cl [Example 44, trans-8-Chloro-1-[4-(4-chloro-5-methyl-isoxazol-3-yl)-cyclohexyl]-5-methyl-5,6-dihydro-4H-2,3,5,10b-tetraaza-benzo[e]azulene]	0.603 nM
Cc1onc([C@H]2CC[C@H](c3nnc4n3-c3ccc(Cl)cc3CN(C(=O)OC(C)(C)C)C4)CC2)c1F [Example 45, trans-8-Chloro-1-[4-(4-fluoro-5-methyl-isoxazol-3-yl)-cyclohexyl]-4H,6H-2,3,5,10b-tetraaza-benzo[e]azulene-5-carboxylic acid tert-butyl ester]	0.724 nM
Cc1onc([C@H]2CC[C@H](c3nnc4n3-c3ccc(Cl)cc3CNC4)CC2)c1F [Example 46, trans-8-Chloro-1-[4-(4-fluoro-5-methyl-isoxazol-3-yl)-cyclohexyl]-5,6-dihydro-4H-2,3,5,10b-tetraaza-benzo[e]azulene]	8.51 nM
Cc1onc([C@H]2CC[C@H](c3nnc4n3-c3ccc(Cl)cc3CN(C)C4)CC2)c1F [Example 47, trans-8-Chloro-1-[4-(4-fluoro-5-methyl-isoxazol-3-yl)-cyclohexyl]-5-methyl-5,6-dihydro-4H-2,3,5,10b-tetraaza-benzo[e]azulene]	0.575 nM
CCc1cc([C@H]2CC[C@@H](c3nnc4n3-c3ccc(Cl)cc3CN(C(=O)OC(C)(C)C)C4)CC2)no1 [Example 48, cis-8-Chloro-1-[4-(5-ethyl-isoxazol-3-yl)-cyclohexyl]-4H,6H-2,3,5,10b-tetraaza-benzo[e]azulene-5-carboxylic acid tert-butyl ester]	8.32 nM
CCc1cc([C@H]2CC[C@H](c3nnc4n3-c3ccc(Cl)cc3CN(C(=O)OC(C)(C)C)C4)CC2)no1 [Example 49, trans-8-Chloro-1-[4-(5-ethyl-isoxazol-3-yl)-cyclohexyl]-4H,6H-2,3,5,10b-tetraaza-benzo[e]azulene-5-carboxylic acid tert-butyl ester]	4.07 nM
CCc1cc([C@H]2CC[C@@H](c3nnc4n3-c3ccc(Cl)cc3CNC4)CC2)no1 [Example 50, cis-8-Chloro-1-[4-(5-ethyl-isoxazol-3-yl)-cyclohexyl]-5,6-dihydro-4H-2,3,5,10b-tetraaza-benzo[e]azulene hydrochloride]	182 nM
CCc1cc([C@H]2CC[C@@H](c3nnc4n3-c3ccc(Cl)cc3CN(C)C4)CC2)no1 [Example 51, cis-8-Chloro-1-[4-(5-ethyl-isoxazol-3-yl)-cyclohexyl]-5-methyl-5,6-dihydro-4H-2,3,5,10b-tetraaza-benzo[e]azulene]	15.5 nM
CCc1cc([C@H]2CC[C@H](c3nnc4n3-c3ccc(Cl)cc3CNC4)CC2)no1 [Example 52, trans-8-Chloro-1-[4-(5-ethyl-isoxazol-3-yl)-cyclohexyl]-5,6-dihydro-4H-2,3,5,10b-tetraaza-benzo[e]azulene hydrochloride]	6.31 nM
CCc1cc([C@H]2CC[C@H](c3nnc4n3-c3ccc(Cl)cc3CN(C)C4)CC2)no1 [Example 53, trans-8-Chloro-1-[4-(5-ethyl-isoxazol-3-yl)-cyclohexyl]-5-methyl-5,6-dihydro-4H-2,3,5,10b-tetraaza-benzo[e]azulene]	1.2 nM
CC(C)(C)OC(=O)N1Cc2cc(Cl)ccc2-n2c(nnc2[C@H]2CC[C@H](c3noc4c3CCCC4)CC2)C1 [Example 54, trans-8-Chloro-1-[4-(4,5,6,7-tetrahydro-benzo[d]isoxazol-3-yl)-cyclohexyl]-4H,6H-2,3,5,10b-tetraaza-benzo[e]azulene-5-carboxylic acid tert-butyl ester]	9.55 nM

— US8513238B2 (Hoffmann-La Roche Inc., priority 2010, dated 2013)
